This is an account of results in patent publication US20100330029A1, “Cancer Treatments with Radiation and Immunocytokines” (Merck Patent GmbH, priority 2008, published 2010).

The experiment relates to Lewis lung carcinoma (LLC). The experiment is described as follows: tumor growth assay, Lewis lung carcinoma model. The format is in vivo, mice. Particulars: LLC-3, single-arm groups: cisplatin plus 3.6 Gy/d without EMD521873, or EMD521873 alone. Here is the method:
LL/2 (LLC) cells, a murine Lewis lung carcinoma cell line, were maintained in DMEM, supplemented with 10% heat-inactivated fetal bovine serum, L-glutamine, penicillin/streptomycin (Life Technologies, Inc.) at 37° C. and 7% CO2. LLC cells were implanted in female C57BL/6 mice.
For the tumor growth assay, cells growing exponentially in culture were injected as a single cell suspension in 100 μl of PBS intramuscularly into the upper legs of the mice. In experiments using a dual tumor model, cells were also implanted in the flanks of the mice. […] In Experiment LLC-7, tumors were implanted in the flank until established. Mice were treated on days 0 to 9, then, on day 12, tumors were excised using survival surgery. Thereafter, animal survival was monitored. In Experiment LLC-14, tumors were implanted subcutaneously in the flank until established. Mice were treated on days 0 to 6 and day 17, and tumor size was measured twice weekly for the duration of the study.
Tumors were measured with calipers in three dimensions for the duration of the experiment. Tumor volumes were calculated using the equation:
Volume=4/3π(L/2×W/2×H/2) • where L=length, W=width and H=height of the tumor
For local irradiation, mice were anesthetized by intraperitoneal injection of a solution of 2% tribromoethanol/3% xylazine. The amount injected was 0.02 ml/gram of the recipient's weight. Mice were restrained so that only their tumor-bearing leg was exposed to radiation, while the reminder of the mouse was shielded. Tumors were irradiated with ^137Cs gamma radiation at a dose rate of 1 Gy/min using a Gammacell® 40 Exactor (Nordion, Ottawa, ON).
Data from the subcutaneous tumor growth assay are presented in graphic form depicting average and standard deviations (sd) of tumor volumes or weights during and after dosing. Animal weight changes were determined by subtracting the animal weight at each time point from the initial body weight, on day 0, then dividing by the initial body weight and multiplying by 100. Therefore a value of 0 indicates no weight change.
Student's 2-tailed t test or Mann-Whitney Rank Sum test, as appropriate, was performed on the individual tumor volumes or animal weights, to determine significant differences between treatment groups.

Regarding `N.N.[Cl][Pt][Cl]` [cisplatin, cis-diammineplatinum (II) dichloride, reference compound], the complete responses is given as 0/6. In addition, where the note is “day 19”, the T/C worked out at 0.32.
